# Reference: PMC6199744, “Development of Chemical Proteomics for the Folateome and Analysis of the Kinetoplastid Folateome” (ACS Infectious Diseases, 2018)
# “And” between values parts separate entries of the source, which are not always exact repeats. Identical values can stand only once. Like-named read-outs stand apart in the source and are kept apart here.
# Test system: T. brucei lysate proteins
# Assay type: binding, Trypanosoma brucei
smiles,measurement,setting,value
NCCOCCOCC(=O)Nc1nc2ncc(CNc3ccc(C(=O)NC(CCC(=O)O)C(=O)O)cc3)nc2c(=O)[nH]1 (stereo not shown) [compound 6],fold change vs vehicle control,,0.88 and 0.97 and 1.1 and 0.99 and 0.76 and 1
same,fold change,"protein CZB00000046.1 HA-UBIQUITIN, vehicle control = 1",0.9
same,fold change,"protein CZT00018965.1 RETRO[…] (RHS) PROTEIN 1, vehicle control = 1",1.49
same,fold change,"protein RHS6A, vehicle control = 1",1
same,fold change vs vehicle control,"protein TB09.160.3270 ATP-DEPENDENT DEAD BOX HELICASE, PUTATIVE, vehicle control = 1",1.28
same,fold change vs vehicle control,"protein TB09.160.4200 60S ACIDIC RIBOSOMAL PROTEIN, PUTATIVE, vehicle control = 1",0.88
same,fold change vs vehicle control,"protein TB09.211.2630 60S RIBOSOMAL PROTEIN L23, PUTATIVE, vehicle control = 1",0.96
same,fold change,"protein TB09.211.4760 METACASPASE 5, PUTATIVE, vehicle control = 1",0.82
same,fold change,"protein TB11.01.1690 HY[…], CONSERVED, vehicle control = 1",1.19
same,fold change vs vehicle control,"protein TB11.01.2560 40S RIBOSOMAL PROTEIN SA, PUTATIVE, vehicle control = 1",0.94
same,fold change vs vehicle control,"protein TB11.01.3180 GUANINE NUCLEOTIDE-BINDING PROTEIN BETA SUBUNIT-LIKE PROTEIN, vehicle control = 1",0.97
same,fold change,"protein TB11.01.3560 VACUOLAR ATP SYNTHASE SUBUNIT B, PUTATIVE, vehicle control = 1",0.93
same,fold change vs vehicle control,"protein TB11.01.4370 HY[…], CONSERVED, vehicle control = 1",0.96
same,fold change,"protein TB11.01.5350 PROFILIN, vehicle control = 1",0.97
same,fold change vs vehicle control,"protein TB11.01.5910 DYNEIN IN[…] IC70, PUTATIVE, vehicle control = 1",0.99
same,fold change,"protein TB11.01.8590 RAB-LIKE 5, SMALL G PROTEIN, vehicle control = 1",0.94
same,fold change,"protein TB11.01.8740 PROTEIN PHOSPHATASE 4, PUTATIVE, vehicle control = 1",0.8
same,fold change vs vehicle control,"protein TB11.02.0730 METACASPASE, vehicle control = 1",0.84
same,fold change vs vehicle control,"protein TB11.02.1135 DYNEIN LIGHT CHAIN, PUTATIVE, vehicle control = 1",1.14
same,fold change vs vehicle control,"protein TB11.02.2040 HY[…], CONSERVED (ALBA-Domain Protein), vehicle control = 1",1.34
same,fold change vs vehicle control,"protein TB11.02.2420 HY[…], CONSERVED, vehicle control = 1",0.9
same,fold change vs vehicle control,"protein TB11.02.2510 GUANINE NUCLEOTIDE-BINDING BETA SUBUNIT-LIKE PROTEIN, vehicle control = 1",1
same,fold change vs vehicle control,"protein TB11.02.2640 DYNEIN IN[…] IC78, PUTATIVE, vehicle control = 1",0.97
same,fold change,"protein TB11.02.2960 MIT[…] PROTEIN, PUTATIVE, vehicle control = 1",0.88
same,fold change vs vehicle control,"protein TB11.03.0250 C[…], vehicle control = 1",1.45
same,fold change,"protein TB11.46.0009 HY[…], CONSERVED, vehicle control = 1",0.99
same,fold change vs vehicle control,"protein TB427TMP.01.1680 POLYUBIQUITIN, PUTATIVE, vehicle control = 1",1.25
same,fold change,"protein TB427TMP.01.1830 HY[…], CONSERVED, vehicle control = 1",0.89
same,fold change vs vehicle control,"protein TB427TMP.01.4280 HY[…], CONSERVED, vehicle control = 1",0.84
same,fold change,"protein TB427TMP.01.4750 […] 1 GAMMA, PUTATIVE, vehicle control = 1",1
same,fold change vs vehicle control,"protein TB427TMP.01.5000 HY[…], CONSERVED, vehicle control = 1",0.91
same,fold change vs vehicle control,"protein TB427TMP.01.5680 HY[…], CONSERVED, vehicle control = 1",1.21
same,fold change,"protein TB427TMP.01.5960 MIT[…] PROTEIN, PUTATIVE, vehicle control = 1",0.82
same,fold change vs vehicle control,"protein TB427TMP.01.6890 SMALL GTPASE, PUTATIVE, vehicle control = 1",1.56
same,fold change,"protein TB427TMP.01.7490 HY[…], CONSERVED, vehicle control = 1",0.97
same,fold change,"protein TB427TMP.01.8390 HY[…], CONSERVED, vehicle control = 1",0.88
same,fold change,"protein TB427TMP.02.0030 DYNEIN HEAVY CHAIN, PUTATIVE, vehicle control = 1",1
same,fold change,"protein TB427TMP.02.0760 DYNEIN HEAVY CHAIN, PUTATIVE, vehicle control = 1",0.82
same,fold change,"protein TB427TMP.02.1070 AMINOPEPTIDASE, PUTATIVE, vehicle control = 1",1.1
same,fold change,"protein TB427TMP.02.1460 HY[…], CONSERVED, vehicle control = 1",0.98
same,fold change,"protein TB427TMP.02.1860 HY[…], CONSERVED, vehicle control = 1",0.97
same,fold change vs vehicle control,"protein TB427TMP.02.2070 LONG-CHAIN-FATTY-ACID-COA LIGASE, PUTATIVE, vehicle control = 1",0.99
same,fold change vs vehicle control,"protein TB427TMP.02.2120 NUCLEOPORIN 48, vehicle control = 1",1.18
same,fold change vs vehicle control,"protein TB427TMP.02.2890 HY[…], CONSERVED, vehicle control = 1",0.94
same,fold change,"protein TB427TMP.02.4100 PRETRA[…], ALPHA SUBUNIT, PUTATIVE, vehicle control = 1",1.3
same,fold change,"protein TB427TMP.02.4550 HY[…], CONSERVED, vehicle control = 1",0.88
same,fold change,"protein TB427TMP.02.5660 HY[…], CONSERVED, vehicle control = 1",0.95
same,fold change vs vehicle control,"protein TB427TMP.02.5720 RIBONUCLEOSIDE-DIPHOSPHATE REDUCTASE LARGE CHAIN, vehicle control = 1",0.88
same,fold change,"protein TB427TMP.160.2370 HY[…], CONSERVED, vehicle control = 1",0.93
same,fold change,"protein TB427TMP.160.3630 CAMP-SPECIFIC PHOSPHODIESTERASE, vehicle control = 1",0.97
same,fold change,"protein TB427TMP.160.4240 […] PROTEIN-LIKE PROTEIN, vehicle control = 1",1.2
same,fold change vs vehicle control,"protein TB427TMP.160.4450 40S RIBOSOMAL PROTEIN S3, PUTATIVE, vehicle control = 1",1.12
same,fold change vs vehicle control,"protein TB427TMP.160.4560 ARGININE KINASE, vehicle control = 1",1.65
same,fold change vs vehicle control,"protein TB427TMP.160.4630 HY[…], CONSERVED, vehicle control = 1",0.88
same,fold change,"protein TB427TMP.160.4770 PROTEIN KINASE, PUTATIVE, vehicle control = 1",0.84
same,fold change,"protein TB427TMP.160.4910 FLAVOPROTEIN MONOOXYGENASE, PUTATIVE, vehicle control = 1",0.97
same,fold change,"protein TB427TMP.160.5670 HY[…], CONSERVED, vehicle control = 1",0.99
same,fold change,"protein TB427TMP.211.2460 HY[…], CONSERVED, vehicle control = 1",0.99
same,fold change vs vehicle control,"protein TB427TMP.211.2570 T-COMPLEX PROTEIN 1, ETA SUBUNIT, PUTATIVE, vehicle control = 1",0.91
same,fold change vs vehicle control,"protein TB427TMP.211.3140 HY[…], CONSERVED, vehicle control = 1",1.47
same,fold change vs vehicle control,"protein TB427TMP.211.3510 ATP-DEPENDENT DEAD/H RNA HELICASE, PUTATIVE, vehicle control = 1",0.88
same,fold change vs vehicle control,"protein TB427TMP.211.4170 HY[…], CONSERVED, vehicle control = 1",0.88
same,fold change,"protein TB427TMP.47.0011 HY[…], CONSERVED, vehicle control = 1",0.93
same,fold change vs vehicle control,"protein TB427TMP.55.0006 INTR[…] PROTEIN IFT88, vehicle control = 1",0.95
same,fold change vs vehicle control,"protein TB427TMP.57.0008 CALPAIN-LIKE PROTEIN, PUTATIVE, vehicle control = 1",0.97
same,fold change,"protein TB427TMP.V1.0370 HY[…], CONSERVED, vehicle control = 1",0.88
same,fold change vs vehicle control,"protein TB427.01.120 RETRO[…] SPOT (RHS) PROTEIN, PUTATIVE, vehicle control = 1",0.88
same,fold change,"protein TB427.01.2570 COATOMER BETA SUBUNIT, vehicle control = 1",0.88
same,fold change,"protein TB427.01.420 RETRO[…] SPOT (RHS) PROTEIN, PUTATIVE, vehicle control = 1",0.97
same,fold change,"protein TB427.01.5030 LEUCINE-RICH REPEAT PROTEIN (LRRP), PUTATIVE, vehicle control = 1",0.93
same,fold change vs vehicle control,"protein TB427.02.2970 MIT[…] PROTEIN, PUTATIVE, vehicle control = 1",1.21
same,fold change vs vehicle control,"protein TB427.02.6050 BETA PRIME COP PROTEIN, vehicle control = 1",1.36
same,fold change vs vehicle control,"protein TB427.03.1210 PROTEIN TRANSPORT PROTEIN SEC24, vehicle control = 1",1.1
same,fold change vs vehicle control,"protein TB427.03.3160 POLY(A) POLYMERASE, vehicle control = 1",0.47
same,fold change vs vehicle control,"protein TB427.03.4040 HY[…], CONSERVED (Ankyrinrepeat), vehicle control = 1",2.65
same,fold change vs vehicle control,"protein TB427.03.4750 AMINOPEPTIDASE, PUTATIVE, vehicle control = 1",1.1
same,fold change,"protein TB427.03.4910 SIGNAL PEPTIDE PEPTIDASE, PUTATIVE, vehicle control = 1",1.22
same,fold change,"protein TB427.04.1300 HY[…], CONSERVED, vehicle control = 1",1.2
same,fold change vs vehicle control,"protein TB427.04.1510 PHOSPHOLIPID-TRA[…], PUTATIVE, vehicle control = 1",1
same,fold change,"protein TB427.04.2340 HY[…], CONSERVED, vehicle control = 1",0.92
same,fold change,"protein TB427.04.310 HY[…], CONSERVED, vehicle control = 1",0.6
same,fold change,"protein TB427.04.420 PHOSPHATIDYLINOSITOL 3-KINASE (TOR2), vehicle control = 1",0.71
same,fold change,"protein TB427.04.450 COATOMER ALPHA SUBUNIT, PUTATIVE, vehicle control = 1",0.86
same,fold change vs vehicle control,"protein TB427.04.4870 AMINO ACID TRANSPORTER, PUTATIVE, vehicle control = 1",1.1
same,fold change,"protein TB427.04.5010 CALRETICULIN, PUTATIVE, vehicle control = 1",1.53
same,fold change vs vehicle control,"protein TB427.05.1700 R[…] A 28 KDA SUBUNIT, PUTATIVE, vehicle control = 1",1.31
same,fold change vs vehicle control,"protein TB427.05.3260 HY[…], CONSERVED, vehicle control = 1",0.88
same,fold change vs vehicle control,"protein TB427.05.4560 GUANINE DEAMINASE, PUTATIVE, vehicle control = 1",0.93
same,fold change vs vehicle control,"protein TB427.06.1070 HY[…], CONSERVED, vehicle control = 1",0.94
same,fold change vs vehicle control,"protein TB427.06.1500 ALKYL-DIHYDR[…] SYNTHASE, vehicle control = 1",0.97
same,fold change,"protein TB427.06.1800 PROTEIN PHOSPHATASE 2C, PUTATIVE, vehicle control = 1",0.92
